Assay results taken from ChEMBL document CHEMBL4354808, “Drugs for the Treatment of Zika Virus Infection” (J Med Chem, 2020).
≈ marks a conversion by molar mass, not a printed value.

Legend:
[1] = Cytotoxicity against human HuH7 cells; assay type: cell-based; conditions: Huh-7 cells
[2] = Cytotoxicity against human RD cells; assay type: cell-based
[3] = Cytotoxicity against African green monkey Vero cells; assay type: cell-based; conditions: chlorocebus sabaeus
[4] = Cytotoxicity against human NSC by CellTiter-Glo assay; assay type: cell-based; conditions: NSC cells
[5] = Cytotoxicity against African green monkey Vero cells by MTT assay; assay type: cell-based; conditions: chlorocebus sabaeus
[6] = Cytotoxicity against human HuH7 cells by MTT assay; assay type: cell-based; conditions: Huh-7 cells
[7] = molecular target: T1, NS5 (Zika virus, UniProt A0A143MHK7); experiment: Binding affinity to Zika virus Methyltransferase
T1 sequence (A0A143MHK7 whole entry): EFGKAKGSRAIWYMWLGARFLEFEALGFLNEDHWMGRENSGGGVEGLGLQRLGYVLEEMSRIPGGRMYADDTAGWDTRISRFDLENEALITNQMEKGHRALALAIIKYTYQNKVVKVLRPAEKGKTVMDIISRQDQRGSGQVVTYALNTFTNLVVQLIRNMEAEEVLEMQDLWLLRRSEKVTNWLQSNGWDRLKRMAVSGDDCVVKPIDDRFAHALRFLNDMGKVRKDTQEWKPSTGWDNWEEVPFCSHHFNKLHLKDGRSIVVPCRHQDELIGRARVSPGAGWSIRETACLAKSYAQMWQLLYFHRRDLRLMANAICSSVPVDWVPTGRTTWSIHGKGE

[8] = Cytotoxicity against African green monkey Vero cells by visual method; assay type: cell-based; conditions: chlorocebus sabaeus
[9] = molecular target: T2, Nonstructural protein 3 (Zika virus, UniProt A0A024AXB9); experiment: Inhibition of Zika virus NS2B (1421 to 1469 residues) - NS3 (1503 to 1688 residues) expressed in Escherichia coli BL21(DE3) cells using Dabcyl-KTSAVLQSGFRKME-Edans as substrate after 11 mins by FRET assay
T2 sequence (A0A024AXB9 whole entry, the tested form may be a part): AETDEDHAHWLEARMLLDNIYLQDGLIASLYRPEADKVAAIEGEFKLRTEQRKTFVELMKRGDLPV

[10] = system: Zika virus; experiment: Antiviral activity against Zika virus MR766 infected in African green monkey Vero cells by plaque assay; assay type: functional, organism-based
[11] = Cytotoxicity against BHK21 cells after 24 to 48 hrs by CCK8 assay; assay type: cell-based, Mesocricetus auratus; conditions: hamster, BHK-21 cells
[12] = molecular target: T2, Nonstructural protein 3; experiment: Inhibition of N-terminal His6-tagged Zika virus NS2B (45 to 96 residues) - NS3 (1 to 177 residues) protease domain expressed in Escherichia coli BL21-Gold (DE3) cells or Escherichia coli BL21 Rosetta (DE3) preincubated for 30 mins followed by Bz-nKRR-AM substrate addition measured over 10 mins at 60 secs interval by fluorescence method
[13] = molecular target: T2, Nonstructural protein 3; experiment: Inhibition of N-terminal His6-tagged Zika virus NS2B (49 to 95 residues) - NS3 (1 to 170 residues) protease domain expressed in Escherichia coli BL21-Gold (DE3) cells preincubated for 10 mins followed by Bz-Nle-Lys-Lys-Arg-AMC substrate addition
[14] = system: Zika virus; experiment: Antiviral activity against Zika virus PLCal_ZV infected in African green monkey Vero cells assessed as reduction in viral titer after 1 hr by plaque assay; assay type: functional, organism-based
[15] = system: Zika virus; experiment: Antiviral activity against Zika virus PLCal_ZV infected in human Neural progenitor cells; assay type: functional, organism-based
[16] = molecular target: T1, NS5; experiment: Inhibition of Zika virus MTase (4 to 278 residues) expressed in Escherichia coli T7 using GpppAC4 as substrate in presence of [3H]SAM incubated for 30 mins by liquid scintillation counter method
[17] = molecular target: T1, NS5; experiment: Inhibition of Zika virus MTase (4 to 278 residues) expressed in Escherichia coli T7 using A27 RNA as substrate in presence of [3H]SAM incubated for 30 mins by liquid scintillation counter method
[18] = system: West Nile virus; experiment: Antiviral activity against West Nile virus NY003356V2 infected in human A549 cells after 48 hrs by plaque reduction assay; assay type: functional, organism-based; conditions: NY003356V2, A549, 48 h
[19] = molecular target: Genome polyprotein (dengue virus type 2, UniProt P29990); experiment: Inhibition of Dengue virus 2 NS2B (48 to 95 residues)-NS3 (1 to 185 residues) expressed in Escherichia coli BL21 Rosetta (DE3) incubated for 30 mins followed by Abz-RRRRSAG-nTyr substrate addition
Sequence of Genome polyprotein (P29990 1346-1475 limits assumed): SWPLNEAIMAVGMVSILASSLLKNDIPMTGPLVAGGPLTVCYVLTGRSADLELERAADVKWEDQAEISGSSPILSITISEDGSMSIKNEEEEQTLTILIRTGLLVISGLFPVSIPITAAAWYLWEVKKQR
Sequence of Genome polyprotein (P29990 1476-2093 limits assumed): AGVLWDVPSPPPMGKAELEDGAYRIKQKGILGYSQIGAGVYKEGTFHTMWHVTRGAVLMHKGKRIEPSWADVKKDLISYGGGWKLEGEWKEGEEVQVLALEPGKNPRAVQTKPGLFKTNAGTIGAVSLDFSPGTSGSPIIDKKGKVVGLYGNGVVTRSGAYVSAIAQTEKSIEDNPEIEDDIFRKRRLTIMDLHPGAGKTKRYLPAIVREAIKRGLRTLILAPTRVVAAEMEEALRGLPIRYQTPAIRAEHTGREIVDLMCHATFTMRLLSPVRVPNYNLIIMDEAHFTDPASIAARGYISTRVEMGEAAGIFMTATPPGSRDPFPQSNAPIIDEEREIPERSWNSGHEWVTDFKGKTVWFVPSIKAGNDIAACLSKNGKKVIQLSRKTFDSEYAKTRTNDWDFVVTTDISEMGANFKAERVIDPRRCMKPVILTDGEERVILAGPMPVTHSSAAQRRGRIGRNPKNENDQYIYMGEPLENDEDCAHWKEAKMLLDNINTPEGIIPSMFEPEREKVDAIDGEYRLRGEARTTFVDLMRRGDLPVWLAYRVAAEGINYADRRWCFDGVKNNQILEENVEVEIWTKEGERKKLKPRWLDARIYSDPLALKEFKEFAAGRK

[20] = system: dengue virus type 2; experiment: Antiviral activity against Dengue virus 2 New Guinea C infected in human A549 cells after 48 hrs by plaque reduction assay; assay type: functional, organism-based; conditions: A549, 48 h
[21] = system: Zika virus; experiment: Antiviral activity against Zika virus Puerto Rico/PRVABC59 infected in human A549 cells after 48 hrs by plaque reduction assay; assay type: functional, organism-based; conditions: Puerto Rico/PRVABC59, A549, 48 h
[22] = Cytotoxicity against human A549 cells after 42 hrs by WST-8 cell proliferation assay; assay type: cell-based
[23] = system: Yellow fever virus; experiment: Antiviral activity against Yellow fever virus 17D V3 Vaccine infected in human A549 cells after 48 hrs by plaque reduction assay; assay type: functional, organism-based; conditions: A549, 48 h

Nc1ncnc2c([C@@H]3N[C@H](CO)[C@@H](O)[C@H]3O)c[nH]c12
CC50 [1]: > 89 µM | CC50 [2]: > 89 µM | CC50 [3]: > 89 µM

C#C[C@@]1(O)[C@H](O)[C@@H](COP(=O)(N[C@@H](C)C(=O)OC(C)C)Oc2ccccc2)O[C@H]1n1ccc(=O)[nH]c1=O (some centres undefined)
CC50 [4]: > 50 µM

CO[C@@H]1[C@@H](OC(N)=O)[C@@H](O)[C@H](Oc2ccc3c(O)c(NC(=O)c4ccc(O)c(CC=C(C)C)c4)c(=O)oc3c2C)OC1(C)C [NOVOBIOCIN]
CC50 [5]: 850 µg/mL (≈ 1390 µM) | CC50 [6]: 1100 µg/mL (≈ 1800 µM)

C[S+](CC[C@H](N)C(=O)[O-])C[C@H]1O[C@@H](n2cnc3c(N)ncnc32)[C@H](O)[C@@H]1O (some centres undefined) [ADEMETIONINE]
Kd [7]: 2.58 µM

Nc1ncnc2c1ccn2[C@@H]1O[C@H](CO)[C@@H](O)[C@H]1O [TUBERCIDIN]
CC50 [8]: > 357 µM

NC(=O)c1ncn([C@@H]2O[C@H](CO)[C@@H](O)[C@H]2O)n1 [RIBAVIRIN]
CC50 [3]: > 100 µM

O=c1c(O[C@@H]2O[C@H](CO)[C@@H](O)[C@H](O)[C@H]2O)c(-c2ccc(O)cc2)oc2cc(O)cc(O)c12 [ASTRAGALIN]
IC50 [9]: 112 µM

CCN(CC)CCCC(C)Nc1c2ccc(Cl)cc2nc2ccc(OC)cc12 (centres undefined) [QUINACRINE]
EC50 [10]: 2.27 µM | CC50 [11]: 18.6 µM

CC(C)OC(=O)[C@H](C)NP(=O)(OC[C@H]1O[C@@H](n2ccc(=O)[nH]c2=O)[C@H](O)[C@@H]1O)Oc1ccccc1 (some centres undefined)
CC50 [4]: 47 µM

COc1ccc(S(=O)(=O)n2nc(OC(=O)c3ccccc3)cc2N)cc1
IC50 [12]: 1.5 µM

C[C@@H]1O[C@@H](OC[C@H]2O[C@@H](Oc3c(-c4ccc(O)c(O)c4)oc4cc(O)cc(O)c4c3=O)[C@H](O)[C@@H](O)[C@@H]2O)[C@H](O)[C@H](O)[C@H]1O [RUTIN]
IC50 [9]: 104 µM

N=C(N)NCCC[C@H](NC(=O)[C@H](Cc1ccc(CN)cc1)NC(=O)c1ccccc1)B(O)O
IC50 [13]: 0.25 µM | Ki [13]: 0.04 µM

CCN(CC)Cc1cc(Nc2ccnc3cc(Cl)ccc23)ccc1O [AMODIAQUINE]
EC50 [14]: 2.8 to 4.4 µM | EC50 [15]: 2.8 to 4.4 µM

O=C(O[C@@H]1Cc2c(O)cc(O)cc2O[C@@H]1c1ccc(O)c(O)c1)c1cc(O)c(O)c(O)c1 [EPICATECHIN GALLATE]
IC50 [9]: 89 µM

O=c1cc(-c2ccc(O)c(O)c2)oc2cc(O)cc(O)c12 [LUTEOLIN]
IC50 [9]: 53 µM

Nc1cc(C(F)(F)F)ccc1NC(=O)Nc1cccc(S(=O)(=O)Nc2ccc(C(=O)O)cc2)c1
IC50 [16]: 24 µM | IC50 [17]: 79 µM

O=C1C=C/C(=N/Nc2ccc([N+](=O)[O-])cc2Cl)C=C1C(=O)Nc1cccc(Cl)c1
EC50 [18]: 1.27 µM | IC50 [19]: 1.8 µM | EC50 [20]: 0.81 µM | EC50 [21]: 1 µM | CC50 at 42 h [22]: 48.8 µM | EC50 [23]: 0.28 µM
